Test systems include SK-MEL-5 melanoma; MCF7 breast; K-562 leukemia; SK-MEL-2 melanoma; OVCAR-3 ovarian; CCRF-CEM leukemia; SK-MEL-28 melanoma; NCI/ADR-RES ovarian; SNB-75 CNS; SNB-19 CNS.
What all share (experiment): NCI tumour cell line growth inhibition, 48 h

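48-hour exposure; five concentrations; linearly interpolated endpoints. Here, GI50 denotes the concentration required for 50% inhibition of growth. TGI: concentration producing complete growth inhibition.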 A value given as a limit tells only on which side of the number the result lay.

Results on 8 compounds are retold here after PubChem BioAssay (NCI).

As for `O=C1/C(=C/c2ccc(Cl)cc2)CCC/C1=C\c1ccc(Cl)cc1`, the GI50 in the assay on SK-MEL-5 melanoma was 4.26 µM; in the assay on MCF7 breast, 2.93 µM; in the assay on K-562 leukemia, 3.61 µM; in the assay with SK-MEL-2 melanoma, more than 100 µM; in the assay with OVCAR-3 ovarian, 3.03 µM; with CCRF-CEM leukemia, 3.64 µM. For the same compound, the GI50 with SK-MEL-28 melanoma was 5.8 µM; with NCI/ADR-RES ovarian it was 4.32 µM; in the assay with SNB-75 CNS, more than 100 µM; in the assay with SNB-19 CNS it was 6.69 µM. The TGI with SK-MEL-5 melanoma is more than 100 µM; in the assay on MCF7 breast, more than 100 µM; with K-562 leukemia, more than 100 µM; with SK-MEL-2 melanoma, more than 100 µM; in the assay with OVCAR-3 ovarian it was 7.77 µM; with CCRF-CEM leukemia, more than 100 µM. Also, the TGI in the assay with SK-MEL-28 melanoma, with NCI/ADR-RES ovarian, in the assay on SNB-75 CNS and in the assay with SNB-19 CNS was more than 100 µM in each case.
`Fc1cccc(-n2ccc(-c3ccccc3)nc2=S)c1`: the GI50 is 23.1 µM with SK-MEL-5 melanoma; 18.5 µM with MCF7 breast; 43 µM in the assay with K-562 leukemia; more than 100 µM in the assay with SK-MEL-2 melanoma; 19 µM in the assay on OVCAR-3 ovarian; more than 85.3 µM in the assay on CCRF-CEM leukemia. In addition, the GI50 is 71.9 µM in the assay with SK-MEL-28 melanoma, 18.3 µM with NCI/ADR-RES ovarian, 26.7 µM in the assay on SNB-75 CNS and 12.9 µM in the assay with SNB-19 CNS. Moreover, the TGI was more than 73.1 µM in the assay with SK-MEL-5 melanoma; 41.2 µM in the assay on MCF7 breast; more than 100 µM in the assay with K-562 leukemia; more than 100 µM in the assay with SK-MEL-2 melanoma; 40.6 µM with OVCAR-3 ovarian; more than 100 µM in the assay with CCRF-CEM leukemia. Besides, the TGI with SK-MEL-28 melanoma is more than 100 µM; in the assay on NCI/ADR-RES ovarian it was 41.4 µM; with SNB-75 CNS, more than 70.6 µM; with SNB-19 CNS, more than 59.7 µM.
Regarding `O=C1C=CC(=O)N1c1cccc(N2C(=O)C=CC2=O)c1`, the GI50 with SK-MEL-5 melanoma is 10.9 µM; with MCF7 breast it was 2.52 µM; in the assay with K-562 leukemia it was 2.67 µM; in the assay with SK-MEL-2 melanoma, 2.52 µM; in the assay with OVCAR-3 ovarian, 2.04 µM; in the assay on CCRF-CEM leukemia, 2.27 µM. The GI50 in the assay on SK-MEL-28 melanoma is 1.95 µM; in the assay with NCI/ADR-RES ovarian it was 2.38 µM; in the assay on SNB-75 CNS, 4.71 µM; with SNB-19 CNS it was 18.6 µM. For the same compound, the TGI in the assay with SK-MEL-5 melanoma was 23 µM; in the assay on MCF7 breast it was 5.52 µM; with K-562 leukemia, 7.7 µM; in the assay on SK-MEL-2 melanoma, 5.55 µM; with OVCAR-3 ovarian, 3.54 µM; with CCRF-CEM leukemia it was 7.65 µM. The TGI with SK-MEL-28 melanoma came to 3.78 µM; in the assay with NCI/ADR-RES ovarian it was 6.14 µM; with SNB-75 CNS, 18.3 µM; with SNB-19 CNS, 35.8 µM.
On to `CCN(CC)C(=S)SCN1C(=O)c2ccccc2S1(=O)=O`, for which the GI50 in the assay on SK-MEL-5 melanoma was 6.67 µM; with MCF7 breast, 0.562 µM; in the assay with K-562 leukemia, 24 µM; in the assay on SK-MEL-2 melanoma it was more than 94.4 µM; with OVCAR-3 ovarian it was 34.3 µM; with CCRF-CEM leukemia, less than 0.01 µM. Also, the GI50 was 31 µM in the assay on SK-MEL-28 melanoma, more than 44.3 µM in the assay on NCI/ADR-RES ovarian, 46.7 µM in the assay with SNB-75 CNS and 78 µM in the assay with SNB-19 CNS. Moreover, the TGI in the assay on SK-MEL-5 melanoma was more than 100 µM; in the assay with MCF7 breast, more than 100 µM; in the assay with K-562 leukemia, more than 100 µM; with SK-MEL-2 melanoma, more than 100 µM; in the assay with OVCAR-3 ovarian it was more than 100 µM; in the assay on CCRF-CEM leukemia, 0.016 µM. For the same compound, the TGI is more than 85.1 µM in the assay on SK-MEL-28 melanoma, more than 64.9 µM with NCI/ADR-RES ovarian, more than 91.5 µM with SNB-75 CNS and more than 100 µM in the assay on SNB-19 CNS.
On to `Cc1cc(N2CCOCC2)nc(N(CCCNc2ccnc3cc(Cl)ccc23)Cc2ccco2)n1`, for which the GI50 in the assay with SK-MEL-5 melanoma is 1.82 µM; in the assay with MCF7 breast, 2.42 µM; in the assay on K-562 leukemia, 1.33 µM; in the assay with SK-MEL-2 melanoma, 2.52 µM; with OVCAR-3 ovarian, 1.81 µM; with CCRF-CEM leukemia it was 2.67 µM. Moreover, the GI50 in the assay with SK-MEL-28 melanoma was 2.29 µM; in the assay on NCI/ADR-RES ovarian, 1.95 µM; in the assay with SNB-75 CNS, 2.29 µM; with SNB-19 CNS, 3.81 µM. Also, the TGI in the assay on SK-MEL-5 melanoma was 3.65 µM; in the assay on MCF7 breast, 12.9 µM; in the assay with K-562 leukemia, 11.7 µM; in the assay on SK-MEL-2 melanoma, 6.79 µM; in the assay on OVCAR-3 ovarian, 4.49 µM; in the assay with CCRF-CEM leukemia it was 18.3 µM. Also, the TGI with SK-MEL-28 melanoma stood at 6.66 µM; in the assay with NCI/ADR-RES ovarian, 6.66 µM; with SNB-75 CNS, 9.78 µM; in the assay with SNB-19 CNS it was 15.4 µM.
Consider `C[N+](C)(C)CC(=O)N/N=C(\C(=O)NC1=C(Cl)C(=O)c2ccccc2C1=O)C(C#N)c1nc(-c2ccc([N+](=O)[O-])cc2)cs1` (stereo not drawn), for which the TGI with SK-MEL-5 melanoma was determined as 2.7 µM; in the assay on MCF7 breast it was 22.3 µM; with K-562 leukemia it was 61.1 µM; in the assay with SK-MEL-2 melanoma, 30.9 µM; with OVCAR-3 ovarian, 4.44 µM; in the assay with CCRF-CEM leukemia, 49.5 µM. The TGI is 17.6 µM in the assay on SK-MEL-28 melanoma, more than 57.5 µM in the assay on NCI/ADR-RES ovarian, 19.9 µM in the assay with SNB-75 CNS and 39.8 µM in the assay on SNB-19 CNS.
`N#Cc1c(N)nc(N2CCOCC2)c(C#N)c1-c1ccccn1`: the GI50 in the assay with SK-MEL-5 melanoma, in the assay on MCF7 breast, in the assay on K-562 leukemia, in the assay with SK-MEL-2 melanoma, in the assay on OVCAR-3 ovarian and in the assay with CCRF-CEM leukemia was more than 100 µM each time. The GI50 in the assay on SK-MEL-28 melanoma is more than 100 µM; with NCI/ADR-RES ovarian, more than 100 µM; with SNB-75 CNS, more than 88.5 µM; in the assay with SNB-19 CNS, more than 100 µM. Besides, the TGI in the assay on SK-MEL-5 melanoma, in the assay on MCF7 breast, with K-562 leukemia, in the assay with SK-MEL-2 melanoma, in the assay with OVCAR-3 ovarian and in the assay with CCRF-CEM leukemia was more than 100 µM in each case. In addition, the TGI in the assay with SK-MEL-28 melanoma, in the assay on NCI/ADR-RES ovarian, in the assay on SNB-75 CNS and with SNB-19 CNS was more than 100 µM throughout.
`CCOC(=O)C#Cc1c(C(=O)OCC)nnn1Cc1ccc([N+](=O)[O-])cc1`: the GI50 in the assay with SK-MEL-5 melanoma was 8.86 µM; in the assay with MCF7 breast, 2.3 µM; in the assay on K-562 leukemia, 1.32 µM; with SK-MEL-2 melanoma, 13 µM; in the assay on CCRF-CEM leukemia, 1.26 µM; in the assay on SK-MEL-28 melanoma, 3.03 µM. Besides, the results for the GI50 with NCI/ADR-RES ovarian, in the assay on SNB-75 CNS and with SNB-19 CNS were 5.5 µM, 6.29 µM and 18.9 µM, respectively. Moreover, the TGI is 21 µM in the assay on SK-MEL-5 melanoma; 7.22 µM in the assay with MCF7 breast; 10.7 µM in the assay on K-562 leukemia; 26.3 µM in the assay with SK-MEL-2 melanoma; 5 µM in the assay with CCRF-CEM leukemia; 10.2 µM in the assay on SK-MEL-28 melanoma. The TGI was determined as 21.1 µM in the assay on NCI/ADR-RES ovarian, 20.5 µM with SNB-75 CNS and 45.3 µM with SNB-19 CNS.
